In patent US20250179047A1, “5-[7-(3,4-DIHYDRO-1H-ISOQUINOLINE-2-CARBONYL)-1,2,3,4 TETRAHYDROISOQUINOLIN-6-YL]-1H-PYRROLE-3-CARBOXAMIDE DERIVATIVES, PHARMACEUTICAL COMPOSITIONS CONTAINING THEM AND THEIR USES AS PRO-APOPTOTIC AGENTS” (LES LABORATOIRES SERVIER, priority 2022, published 2025):
Where two headings read alike, the source gives them in different places.

Tests used:
BCL2 D111A = BCL2 D111A (Homo sapiens, UniProt P10415, D111A); assay: TR-FRET competitive binding assay, BCL2 D111A; conditions: Ki determined from IC50, read-out: TR_FRET EKI_Bcl2 D111A
Description: (§1) The relative binding potency of each compound was determined in a competitive binding assay using time resolved-fluorescence resonance energy transfer (TR-FRET). The method utilised a fluorescein labelled peptide derived from PUMA (5Flu-Ahx-[…]-NH2 wherein Ahx means 6-hexanoic acid monomer and the amino acid sequence is referred to as SEQ ID:01) which binds to a terbium labelled BCL2 or BCLXL protein. The degree of binding or corresponding compound inhibition can be quantified by the TR-FRET signal between the terbium donor and fluorescein acceptor.
(§2) The human BCL2_wild-type (also named BCL2_wt), BCL2_G101V mutant and BCLXL_wild-type were E. coli expressed as a N-terminal Halo-fusion proteins and singly labelled with Terbium on the Halo protein to afford the following amino acid sequences:
(§3) wherein the BCL2(1-207) sequence corresponds to UniProtKB® primary accession number P10415 and the BCLXL(2-196) sequence corresponds to UniProtKB® primary accession number Q07817-1.
(§4) The assay was performed in a 40 μL volume in white 384-standard well plates (Corning #3574). An 11-point serial dilution of each compound was prepared in DMSO and transferred directly to plate followed by addition of fluorescein labelled peptide and lastly protein. Final assay conditions were 0.5 nM BCL2_wt, BCL2_G101V, BCL2_D103Y, BCL2_F104I, BCL2_D111A or BCLXL_wt, 2 or 20 nM fluorescein labelled peptide, 50 mM Hepes pH 7.5, 150 mM NaCl, 0.5 mM TCEP (Tris(2-carboxyethyl)phosphine), 0.05% Tween 20, 5% DMSO. The mixture was incubated for 2 hours at 23° C.
(§5) TR-FRET measurements were performed on a Biotek Synergy Neo plate reader. TR-FRET was measured by excitation of the Terbium-donor at 340 nm and subsequent (delay time 100 μs) measurement of terbium and fluorescein emission at 495 nm and 520 nm, respectively, over a collection time of 300 μs. The TR-FRET signal was calculated as the emission-ratio at 520 nm over 495 nm.
(§6) The TR-FRET ratio readout for test compounds was normalized against 0% inhibition controls wells and 100% inhibition control wells. Test compound potency (IC50) was estimated by nonlinear regression using the sigmoidal dose-response (variable slope) using Xlfit 4 (IDBS, Guildford, Surrey, UK, model 205). Were the IC50 could not be determined the % inhibition at the highest tested concentration is given.
(§7) y=(A+((B−A)/(1+((C/x)^D))))
(§8) where y is the normalized TR-TRET ratio measurement for a given concentration of test compound, x is the concentration of test compound, A is the estimated efficacy (% inhibition) at infinite compound dilution, and B is the maximal efficacy (% inhibition). C is the IC50 value and D is the Hill slope coefficient.
(§9) The K1 values were determined from the IC50 values according to Cer et al, Nucleic Acids Res, 2009, July 1; 37 (WebServer issue): W441-W445.

BCL2 D103Y = BCL2 D103Y (Homo sapiens, UniProt P10415, D103Y); assay: TR-FRET competitive binding assay, BCL2 D103Y; conditions: Ki determined from IC50, read-out: TR_FRET EKI_Bcl2 D103Y
Method in brief: (§10)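 Terbium-labelled N-terminal Halo-fusion BCL2 or BCLXL (E. coli), 0.5 nM, competed against fluorescein-labelled PUMA peptide (2 or 20 nM) for 2 h at 23° C in 50 mM Hepes pH 7.5, 150 mM NaCl, 5% DMSO. TR-FRET 520/495 nm ratio gave IC50 by four-parameter fit; Ki derived from IC50.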

BCL2 G101V [1] = assay: TR-FRET competitive binding assay, BCL2 G101V; set-up: species or system human; conditions: for TR_FRET EKI G101V/WT selectivty ratio: ratio Ki BCL2 G101V / Ki BCL2 WT
Method in brief: as §10

BCL2 G101V [2] = target: BCL2 G101V (Homo sapiens, UniProt P10415, G101V); assay: TR-FRET competitive binding assay, BCL2 G101V; conditions: BCL2 G101V; Ki determined from IC50; read-out: TR_FRET EKI_Bcl2 G101V
Method in brief: as §10

BCL2 WT = BCL2 WT (Homo sapiens (Human), UniProt P10415); assay: TR-FRET competitive binding assay, BCL2 WT
Method in brief: as §10

BCL2 F104I = BCL2 F104I (Homo sapiens, UniProt P10415, F104I); assay: TR-FRET competitive binding assay, BCL2 F104I; conditions: Ki determined from IC50, read-out: TR_FRET EKI_Bcl2 F104I
Description: as §1, §2, §3, §4, §5, §6, §7, §8, §9

KMS-12-PE Bcl-2 WT = assay: In vitro cytotoxicity CellTiter-Glo 48 h, KMS-12-PE Bcl-2 WT; format: cell-based; conditions: Homo sapiens, KMS-12-PE, C50 = concentration needed to reach 50% of the cellular viability
Method in brief: (§11)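 Transduce KMS-12-PE with Bcl-2 WT or G101V lentivirus, then FACS-sort RFP-positive cells. Add compounds in an 11-point dilution series and incubate 48 h at 37 °C. Measure ATP-based luminescence with CellTiter-Glo and derive C50 (50% viability).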

BCLXL WT = BCLXL WT (Homo sapiens (Human), UniProt Q07817); assay: TR-FRET competitive binding assay, BCLXL WT; conditions: for Ki: BCLXL WT, Ki determined from IC50, read-out: TR_FRET EKI BclxL; for TR_FRET EKI BCLxL/WT selectivty ratio: ratio Ki BCLxL / Ki BCL2 WT
Chain of BCLXL WT (Q07817 other isoform, or with tags, fused parts or gaps): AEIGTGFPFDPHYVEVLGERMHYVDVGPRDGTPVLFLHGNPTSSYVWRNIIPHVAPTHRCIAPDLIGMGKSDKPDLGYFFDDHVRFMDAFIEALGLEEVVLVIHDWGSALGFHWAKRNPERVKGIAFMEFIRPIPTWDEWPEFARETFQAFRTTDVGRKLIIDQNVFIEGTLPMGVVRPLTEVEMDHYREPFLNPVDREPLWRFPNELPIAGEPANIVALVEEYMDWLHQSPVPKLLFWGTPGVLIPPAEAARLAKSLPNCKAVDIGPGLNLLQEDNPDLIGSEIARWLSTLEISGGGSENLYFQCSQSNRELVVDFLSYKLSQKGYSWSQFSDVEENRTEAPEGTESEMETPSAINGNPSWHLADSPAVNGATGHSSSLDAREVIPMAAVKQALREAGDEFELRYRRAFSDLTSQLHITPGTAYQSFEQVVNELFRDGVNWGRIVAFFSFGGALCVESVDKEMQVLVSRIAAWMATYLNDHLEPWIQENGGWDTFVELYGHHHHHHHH
Method in brief: as §10

KMS-12-PE Bcl-2 G101V = assay: In vitro cytotoxicity CellTiter-Glo 48 h, KMS-12-PE Bcl-2 G101V; format: cell-based; conditions: for Ratio (G101V/WT): C50 KMS-12-PE Bcl-2 G101V over C50 KMS-12-PE Bcl-2 WT; for IC50: Homo sapiens, KMS-12-PE, 48 h, CellTiter-Glo, C50 = concentration needed to reach 50% of the cellular viability
Method in brief: as §11

[3] = Ki determined from IC50, read-out: TR_FRET EKI_Bcl2 WT

Ki (BCL2 D111A) [nM] | Ki (BCL2 D103Y) [nM] | TR_FRET EKI G101V/WT selectivty ratio (BCL2 G101V [1]) | Ki (BCL2 G101V [2]) [nM] | Ki (BCL2 WT; [3]) [nM] | Ki (BCL2 F104I) [nM] | Ki (BCLXL WT) [nM] | TR_FRET EKI BCLxL/WT selectivty ratio (BCLXL WT) | TR_FRET EKI G101V/WT selectivty (BCL2 G101V [1]; ratio of Ki BCL2 G101V to BCL2 WT) | Ki (BCL2 WT; Ki determined from IC50, read-out: TR_FRET EKI_Bcl2) [nM] | TR_FRET EKI BCLxL/WT selectivty (BCLXL WT; ratio of Ki BCLxL to BCL2 WT) | SMILES | IC50 (KMS-12-PE Bcl-2 WT) [µM] | Ratio (G101V/WT) (KMS-12-PE Bcl-2 G101V) | IC50 (KMS-12-PE Bcl-2 G101V) [µM]
0.18 | 0.13 | 5.0 | 0.2 | 0.04 | 1.02 | 1.5 | 35.7 |  |  |  | Cc1c(N(C(=O)c2cc(-c3cc4c(cc3C(=O)N3Cc5ccccc5C[C@H]3C)CN(C(=O)Cc3ccc(OCCN(C)C5CC5)nc3)CC4)n(C)c2C)c2ccc(O)cc2)cc(C#N)n1C [Example 61, N-(5-cyano-1,2-dimethyl-1H-pyrrol-3-yl)-5-{2-[2-(6-{2-[cyclopropyl(methyl)amino]ethoxy}pyridin-3-yl)acetyl]-7-[(3R)-3-methyl-1,2,3,4-tetrahydroisoquinoline-2-carbonyl]-1,2,3,4-tetrahydroisoquinolin-6-yl}-N-(4-hydroxyphenyl)-1,2-dimethyl-1H-pyrrole-3-carboxamide] | 0.0143 | 5.76 | 0.0824
0.24 | 0.35 | 8.5 | 0.5 | 0.06 | 1.34 | 2.2 | 36.1 |  |  |  | Cc1c(N(C(=O)c2cc(-c3cc4c(cc3C(=O)N3Cc5ccccc5C[C@H]3CN3CCCCC3)CN(C(=O)Cc3ccc(Cl)cc3F)CC4)n(C)c2C)c2ccc(O)cc2)cc(C#N)n1C [Example 44, 5-{2-[2-(4-chloro-2-fluorophenyl)acetyl]-7-{[(3S)-3-(piperidin-1-ylmethyl)-3,4-dihydro-1H-isoquinolin-2-yl]carbonyl}-3,4-dihydro-1H-isoquinolin-6-yl}-N-(5-cyano-1,2-dimethylpyrrol-3-yl)-N-(4-hydroxyphenyl)-1,2-dimethylpyrrole-3-carboxamide] | 0.0073 | 12.2 | 0.0886
0.26 | 0.18 | 4.3 | 0.3 | 0.07 | 0.43 | 1.9 | 29.2 |  |  |  | Cc1c(N(C(=O)c2cc(-c3cc4c(cc3C(=O)N3Cc5ccccc5C[C@H]3CN3CCCCC3)CN(C(=O)Cc3ccc(O[C@H]5CCN(CCF)C5)cc3F)CC4)n(C)c2C)c2ccc(O)cc2)cc(C#N)n1C [Example 89, N-(5-cyano-1,2-dimethylpyrrol-3-yl)-5-{2-[2-(2-fluoro-4-{[(3S)-1-(2-fluoroethyl)pyrrolidin-3-yl]oxy}phenyl)acetyl]-7-{[(3S)-3-(piperidin-1-ylmethyl)-3,4-dihydro-1H-isoquinolin-2-yl]carbonyl}-3,4-dihydro-1H-isoquinolin-6-yl}-N-(4-hydroxyphenyl)-1,2-dimethylpyrrole-3-carboxamide] | 0.0069 | 5.17 | 0.0358
2.65 | 1.23 | 14.0 | 4.2 | 0.3 | 53.5 | 30.2 | 100.7 |  |  |  | Cc1c(N(C(=O)c2cc(-c3cc4c(cc3C(=O)N3Cc5ccccc5C[C@H]3C)CN(C(=O)C(F)(F)c3ccccc3)CC4)n(C)c2C)c2ccc(O)cc2)cc(C#N)n1C [Example 18, N-(5-cyano-1,2-dimethylpyrrol-3-yl)-5-[2-(2,2-difluoro-2-phenylacetyl)-7-{[(3R)-3-methyl-3,4-dihydro-1H-isoquinolin-2-yl]carbonyl}-3,4-dihydro-1H-isoquinolin-6-yl]-N-(4-hydroxyphenyl)-1,2-dimethylpyrrole-3-carboxamide] | 0.0055 | 8.67 | 0.0477
3.34 | 4.1 | 6.2 | 4 | 0.65 | 33.9 | 9.6 | 14.8 |  |  |  | Cc1c(N(C(=O)c2cc(-c3cc4c(cc3C(=O)N3Cc5ccccc5C[C@H]3C)CN(C(=O)c3cnc(-c5ccccc5)s3)CC4)n(C)c2C)c2ccc(O)cc2)cc(C#N)n1C [Example 17, N-(5-cyano-1,2-dimethyl-1H-pyrrol-3-yl)-N-(4-hydroxyphenyl)-1,2-dimethyl-5-{7-[(3R)-3-methyl-1,2,3,4-tetrahydroisoquinoline-2-carbonyl]-2-(2-phenyl-1,3-thiazole-5-carbonyl)-1,2,3,4-tetrahydroisoquinolin-6-yl}-1H-pyrrole-3-carboxamide] | 0.0032 | 4.51 | 0.0144
0.132 | 0.786 |  | 0.73 |  | 1.12 | 4.15 |  | 9.3 | 0.078 | 53.1 | Cc1c(N(C(=O)c2cc(-c3cc4c(cc3C(=O)N3Cc5ccccc5C[C@H]3C)CN(C(=O)Cc3ccc(OCCN5CCOCC5)cc3)CC4)n(C)c2C)c2ccccc2)cc(C#N)n1C [Example 236] | 0.00418 |  | 
 | 1.09 | 3.0 | 0.5 | 0.17 | 3.08 | 2.1 | 12.7 |  |  |  | Cc1c(N(C(=O)c2cc(-c3cc4c(cc3C(=O)N3Cc5ccccc5C[C@H]3C)CN(C(=O)COc3ccccc3)CC4)n(C)c2C)c2ccc(O)cc2)cc(C#N)n1C [Example 2, N-(5-cyano-1,2-dimethyl-1H-pyrrol-3-yl)-N-(4-hydroxyphenyl)-1,2-dimethyl-5-{7-[(3R)-3-methyl-1,2,3,4-tetrahydroisoquinoline-2-carbonyl]-2-(2-phenoxyacetyl)-1,2,3,4-tetrahydroisoquinolin-6-yl}-1H-pyrrole-3-carboxamide] | 0.004 | 5.04 | 0.02
